Experimental data reported in ChEMBL document CHEMBL1201862, “PubChem BioAssay data set” (2004).
The source made the active and inactive calls.

How the values were obtained:
[1] = target: FAD-linked sulfhydryl oxidase ALR (Homo sapiens, UniProt P55789); test: ALR-catalysed DTT oxidation blockers – biochemical, H2O2 detection, luminescence, cherry-pick, dose response (AID 493248)
[2] = target: T1, Nuclear receptor subfamily 0 group B member 1 (Homo sapiens, UniProt P51843); type: functional, cell-based;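 also: HEK293T cells transfected with SF-1 and DAX-1 plus StAR promoter luciferase reporter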
T1 sequence (P51843 whole entry): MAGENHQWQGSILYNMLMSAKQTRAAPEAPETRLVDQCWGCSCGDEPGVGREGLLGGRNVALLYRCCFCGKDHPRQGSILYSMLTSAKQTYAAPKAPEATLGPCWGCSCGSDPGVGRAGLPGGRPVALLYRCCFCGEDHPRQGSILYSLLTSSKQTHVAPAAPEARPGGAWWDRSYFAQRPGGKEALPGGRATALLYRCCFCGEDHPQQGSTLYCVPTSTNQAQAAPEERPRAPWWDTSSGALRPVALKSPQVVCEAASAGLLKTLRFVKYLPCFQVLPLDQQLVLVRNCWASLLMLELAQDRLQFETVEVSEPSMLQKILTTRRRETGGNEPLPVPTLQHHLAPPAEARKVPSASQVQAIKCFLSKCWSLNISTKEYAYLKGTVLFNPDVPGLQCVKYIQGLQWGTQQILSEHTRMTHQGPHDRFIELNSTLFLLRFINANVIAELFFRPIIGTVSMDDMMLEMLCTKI

cells [3] = type: functional, cell-based
[4] = target: T2, Trace amine-associated receptor 1 (Homo sapiens, UniProt Q96RJ0); test: Fluorescence-based cell-based high throughput dose response assay to identify agonists of the human trace amine associated receptor 1 (TAAR1).; type: functional
T2 sequence (Q96RJ0 whole entry): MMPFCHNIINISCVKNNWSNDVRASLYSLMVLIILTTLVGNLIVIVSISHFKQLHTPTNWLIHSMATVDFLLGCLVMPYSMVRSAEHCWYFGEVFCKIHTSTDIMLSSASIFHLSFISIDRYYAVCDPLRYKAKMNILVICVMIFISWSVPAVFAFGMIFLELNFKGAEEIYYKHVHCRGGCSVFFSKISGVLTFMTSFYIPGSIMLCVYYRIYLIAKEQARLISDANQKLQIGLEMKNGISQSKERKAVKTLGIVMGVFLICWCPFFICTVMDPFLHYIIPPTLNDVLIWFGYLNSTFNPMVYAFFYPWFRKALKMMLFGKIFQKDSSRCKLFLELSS

cells [5] = type: functional, cell-based; remark: listed apart in the source
cells [6] = type: functional, cell-based; remark: listed apart in the source
[7] = target: T2, Trace amine-associated receptor 1; test: Counterscreen for agonists of the human trace amine associated receptor 1 (hTAAR1): Fluorescence-based cell-based high throughput dose response assay to identify hTAAR1 agonist that also desensitize TAAR1 receptor response.; type: functional
[8] = target: Disintegrin and metalloproteinase domain-containing protein 17 (Homo sapiens, UniProt P78536); test: inhibition of ADAM17 substrate cleavage – biochemical, quenched FRET substrate, counter-screen for ADAM10 exosite inhibitor project, dose response (AID 743253)
[9] = Luminescence Cell-Based Dose Retest to Confirm Inhibitors of Cancer Stem Cells. [Related pubchem assays (depositor defined):AID2717, AID2721]; type: functional; settings: Homo sapiens
[10] = potency of ADAM10 substrate cleavage blockers – biochemical, QFRET, dose response (AID 743254);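 also: ADAM10 enzyme with the DM2 quenched FRET peptide as substrate; EDANS fluorescence gain as the protease cuts the substrate; inhibitor potency against ADAM10 proteolytic activity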
[11] = reduction of Shn3 3'UTR-driven luciferase in osteoblasts – cell-based, Clone20 osteoblasts, firefly luciferase, cherry-picked, dose response (AID 624132); type: functional;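 also: firefly luciferase luminescence from reporter carrying the Shn3 3'UTR in osteoblasts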
[12] = loss of viability in HepG2 cells – cell-based, CellTiter-Glo, cherry-picked, cytotoxicity control for Shn3 inhibitor project, dose response (AID 624134); type: functional
[13] = non-specific 3'UTR reporter inhibition in Clone20-Shn3RL – cell-based, Renilla luciferase, cherry-picked, counter-screen for Shn3 inhibitor project, dose response (AID 624133); type: functional
[14] = target: T3, Oxysterols receptor LXR-beta (Homo sapiens, UniProt P55055); type: functional, cell-based;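 also: agonist activity at LXR measured by a cell-based luminescence readout across a dose range, run as a counterscreen for daf-12 agonists; HEK293 cells with Gal4-LXR fusion and GAL4-driven luciferase reporter; potency for activation of Gal4-LXR reporter so compounds are agonists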
T3 sequence (P55055 whole entry): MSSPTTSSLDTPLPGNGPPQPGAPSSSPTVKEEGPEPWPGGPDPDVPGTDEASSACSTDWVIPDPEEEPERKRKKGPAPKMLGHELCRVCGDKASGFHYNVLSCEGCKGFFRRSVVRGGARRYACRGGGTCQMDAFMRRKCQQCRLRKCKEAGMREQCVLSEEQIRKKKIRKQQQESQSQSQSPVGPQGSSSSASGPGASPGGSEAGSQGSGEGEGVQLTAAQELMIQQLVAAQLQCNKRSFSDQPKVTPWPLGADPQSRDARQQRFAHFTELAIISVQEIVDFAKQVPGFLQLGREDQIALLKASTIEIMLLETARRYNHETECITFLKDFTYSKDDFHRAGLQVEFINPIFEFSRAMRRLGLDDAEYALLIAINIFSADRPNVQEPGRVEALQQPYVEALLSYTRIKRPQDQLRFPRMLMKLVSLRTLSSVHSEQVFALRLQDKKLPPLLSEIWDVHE

[15] = target: Endoplasmic reticulum aminopeptidase 1 (Homo sapiens, UniProt Q9NZ08); test: inhibition of human ERAP1 enzyme activity – biochemical, cherry-pick, set 2, plate reader, dose response (AID 743314)
[16] = anti-trypanosomal activity in BESM host cells – imaging, CA-I/72 strain, bovine embryo skeletal muscle, dry powder, dose response (AID 651885); type: functional, cell-based
Cytochrome P450 2C9 = Cytochrome P450 2C9 (Homo sapiens, UniProt P11712)
Cytochrome P450 2C19 = Cytochrome P450 2C19 (Homo sapiens, UniProt P33261); test: Cytochrome panel assay with activity outcomes. Panel member name: p450-cyp2c19 Compounds with AC50 equal or less than 10 uM are considered active; type: functional; settings: read-out: AC50
[17] = target: Fructose-bisphosphate aldolase (Mycobacterium tuberculosis, UniProt P9WQA3); test: Fluorescence-based biochemical high throughput dose response assay for inhibitors of the fructose-bisphosphate aldolase (FBA) of M. tuberculosis.; type: functional
HEK293 = test: EBV LMP1 TES2 canonical NF-kB signalling blockers – cell-based, HEK293, luciferase, cherry-pick, dose response (AID 588343); type: functional; settings: Homo sapiens
[18] = target: T4, Latent membrane protein 1 (Human herpesvirus 4 (strain B95-8), UniProt P03230); test: LMP1 TES1 pathway selectivity over dsRED control – imaging, HEK293T, dual-color eGFP/dsRED, cherry-picks, selectivity assay for LMP1 NF-kB inhibitor project, dose response (AID 588398); type: functional, cell-based
T4 sequence (P03230 whole entry): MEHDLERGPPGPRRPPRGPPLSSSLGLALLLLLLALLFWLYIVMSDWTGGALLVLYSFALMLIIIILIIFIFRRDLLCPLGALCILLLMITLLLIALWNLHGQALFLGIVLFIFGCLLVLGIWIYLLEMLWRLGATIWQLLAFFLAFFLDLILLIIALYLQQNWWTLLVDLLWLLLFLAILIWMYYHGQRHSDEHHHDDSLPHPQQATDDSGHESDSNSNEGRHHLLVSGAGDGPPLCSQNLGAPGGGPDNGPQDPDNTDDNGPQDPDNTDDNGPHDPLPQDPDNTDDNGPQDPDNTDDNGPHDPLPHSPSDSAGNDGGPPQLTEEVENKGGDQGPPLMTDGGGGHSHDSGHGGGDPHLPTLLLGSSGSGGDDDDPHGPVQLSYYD

[19] = IGROV1 cell killing – plate reader, dry powder samples, PAX8 inhibitor project, dose response (AID 743043); type: functional, cell-based; settings: IGROV-1
Paired box protein Pax-8 = Paired box protein Pax-8 (Homo sapiens, UniProt Q06710); test: PAX8 transcriptional activity inhibition in RMG-I – RMG-I cells, luciferase, cherry-pick, dose response (AID 687027); type: functional, cell-based;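 also: luciferase reporter driven by Pax8 target thyroperoxidase promoter measured by SteadyGlo luminescence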
[20] = general cell-killing toxicity readout – plate reader, dry powder samples, cytotoxicity control for PAX8 inhibitor project, dose response (AID 743021); type: functional, cell-based
[21] = OVCAR-3 cell viability loss – plate reader, dry powder samples, PAX8 inhibitor project, dose response (AID 743044); type: functional, cell-based

Sequence of Endoplasmic reticulum aminopeptidase 1 (Q9NZ08 whole entry): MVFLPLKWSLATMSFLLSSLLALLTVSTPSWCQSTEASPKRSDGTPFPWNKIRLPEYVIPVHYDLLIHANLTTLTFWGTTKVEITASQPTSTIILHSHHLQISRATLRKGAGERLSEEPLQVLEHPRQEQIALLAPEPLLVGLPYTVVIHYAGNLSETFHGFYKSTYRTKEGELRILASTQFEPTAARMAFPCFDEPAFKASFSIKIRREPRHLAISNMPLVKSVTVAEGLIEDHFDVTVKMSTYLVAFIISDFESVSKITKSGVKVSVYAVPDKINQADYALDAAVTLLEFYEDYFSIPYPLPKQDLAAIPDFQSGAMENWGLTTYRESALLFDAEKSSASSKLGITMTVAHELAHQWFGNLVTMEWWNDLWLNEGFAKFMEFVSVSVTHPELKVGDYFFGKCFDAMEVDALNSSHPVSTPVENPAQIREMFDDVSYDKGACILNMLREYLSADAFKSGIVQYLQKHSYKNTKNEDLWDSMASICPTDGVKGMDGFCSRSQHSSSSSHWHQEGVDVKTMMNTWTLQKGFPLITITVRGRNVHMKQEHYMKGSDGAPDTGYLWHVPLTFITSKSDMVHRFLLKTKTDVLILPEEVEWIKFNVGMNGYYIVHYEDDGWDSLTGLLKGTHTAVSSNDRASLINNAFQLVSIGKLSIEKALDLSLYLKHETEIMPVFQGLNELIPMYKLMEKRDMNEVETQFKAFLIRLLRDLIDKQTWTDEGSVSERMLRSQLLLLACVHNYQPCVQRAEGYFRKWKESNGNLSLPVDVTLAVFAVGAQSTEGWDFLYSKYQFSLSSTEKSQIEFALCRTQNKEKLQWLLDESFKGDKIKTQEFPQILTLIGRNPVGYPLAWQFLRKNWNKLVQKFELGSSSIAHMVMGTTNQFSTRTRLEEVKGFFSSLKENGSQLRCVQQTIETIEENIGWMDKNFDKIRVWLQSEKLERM
Sequence of Cytochrome P450 2C9 (P11712 whole entry): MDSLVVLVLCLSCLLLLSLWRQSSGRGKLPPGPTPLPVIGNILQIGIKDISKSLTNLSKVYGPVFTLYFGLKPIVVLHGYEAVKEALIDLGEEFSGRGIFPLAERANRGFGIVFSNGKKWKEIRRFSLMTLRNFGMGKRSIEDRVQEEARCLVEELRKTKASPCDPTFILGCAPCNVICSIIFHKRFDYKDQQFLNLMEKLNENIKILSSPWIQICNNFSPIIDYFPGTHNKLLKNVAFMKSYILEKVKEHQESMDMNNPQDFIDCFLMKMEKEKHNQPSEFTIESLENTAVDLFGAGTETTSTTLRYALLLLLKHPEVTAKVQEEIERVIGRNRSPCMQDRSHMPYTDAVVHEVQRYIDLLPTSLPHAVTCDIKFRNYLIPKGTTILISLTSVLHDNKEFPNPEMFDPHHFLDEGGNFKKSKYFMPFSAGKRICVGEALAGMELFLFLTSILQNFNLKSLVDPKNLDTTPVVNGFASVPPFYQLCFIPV
Sequence of Cytochrome P450 2C19 (P33261 whole entry): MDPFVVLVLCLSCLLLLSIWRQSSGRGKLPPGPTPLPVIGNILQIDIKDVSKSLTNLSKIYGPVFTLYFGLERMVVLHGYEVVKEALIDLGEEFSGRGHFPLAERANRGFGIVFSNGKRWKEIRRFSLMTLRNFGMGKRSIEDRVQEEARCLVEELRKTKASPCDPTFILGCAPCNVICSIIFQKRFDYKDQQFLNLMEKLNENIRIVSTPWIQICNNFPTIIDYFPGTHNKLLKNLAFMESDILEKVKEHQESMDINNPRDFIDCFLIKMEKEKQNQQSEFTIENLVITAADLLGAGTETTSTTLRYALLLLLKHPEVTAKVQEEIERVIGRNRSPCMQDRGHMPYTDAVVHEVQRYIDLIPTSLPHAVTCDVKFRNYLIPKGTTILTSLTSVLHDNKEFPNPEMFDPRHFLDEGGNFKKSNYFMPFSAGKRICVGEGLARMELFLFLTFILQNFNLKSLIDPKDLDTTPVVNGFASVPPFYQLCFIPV
Sequence of Fructose-bisphosphate aldolase (P9WQA3 whole entry): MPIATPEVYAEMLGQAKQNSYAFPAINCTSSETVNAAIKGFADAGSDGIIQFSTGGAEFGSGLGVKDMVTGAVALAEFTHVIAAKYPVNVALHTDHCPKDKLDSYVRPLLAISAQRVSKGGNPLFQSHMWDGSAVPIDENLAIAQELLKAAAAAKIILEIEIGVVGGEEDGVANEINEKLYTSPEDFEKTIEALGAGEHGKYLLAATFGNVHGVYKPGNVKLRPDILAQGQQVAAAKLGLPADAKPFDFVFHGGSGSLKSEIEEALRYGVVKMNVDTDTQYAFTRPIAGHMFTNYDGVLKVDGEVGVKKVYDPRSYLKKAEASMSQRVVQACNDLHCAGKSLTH
Sequence of FAD-linked sulfhydryl oxidase ALR (P55789 whole entry): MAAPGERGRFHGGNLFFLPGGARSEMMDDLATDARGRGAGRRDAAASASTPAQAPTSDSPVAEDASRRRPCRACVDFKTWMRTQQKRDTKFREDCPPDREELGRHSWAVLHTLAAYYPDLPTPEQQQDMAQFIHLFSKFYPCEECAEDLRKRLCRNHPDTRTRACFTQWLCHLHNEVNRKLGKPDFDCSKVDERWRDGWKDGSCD
Sequence of Disintegrin and metalloproteinase domain-containing protein 17 (P78536 whole entry, the tested form may be a part): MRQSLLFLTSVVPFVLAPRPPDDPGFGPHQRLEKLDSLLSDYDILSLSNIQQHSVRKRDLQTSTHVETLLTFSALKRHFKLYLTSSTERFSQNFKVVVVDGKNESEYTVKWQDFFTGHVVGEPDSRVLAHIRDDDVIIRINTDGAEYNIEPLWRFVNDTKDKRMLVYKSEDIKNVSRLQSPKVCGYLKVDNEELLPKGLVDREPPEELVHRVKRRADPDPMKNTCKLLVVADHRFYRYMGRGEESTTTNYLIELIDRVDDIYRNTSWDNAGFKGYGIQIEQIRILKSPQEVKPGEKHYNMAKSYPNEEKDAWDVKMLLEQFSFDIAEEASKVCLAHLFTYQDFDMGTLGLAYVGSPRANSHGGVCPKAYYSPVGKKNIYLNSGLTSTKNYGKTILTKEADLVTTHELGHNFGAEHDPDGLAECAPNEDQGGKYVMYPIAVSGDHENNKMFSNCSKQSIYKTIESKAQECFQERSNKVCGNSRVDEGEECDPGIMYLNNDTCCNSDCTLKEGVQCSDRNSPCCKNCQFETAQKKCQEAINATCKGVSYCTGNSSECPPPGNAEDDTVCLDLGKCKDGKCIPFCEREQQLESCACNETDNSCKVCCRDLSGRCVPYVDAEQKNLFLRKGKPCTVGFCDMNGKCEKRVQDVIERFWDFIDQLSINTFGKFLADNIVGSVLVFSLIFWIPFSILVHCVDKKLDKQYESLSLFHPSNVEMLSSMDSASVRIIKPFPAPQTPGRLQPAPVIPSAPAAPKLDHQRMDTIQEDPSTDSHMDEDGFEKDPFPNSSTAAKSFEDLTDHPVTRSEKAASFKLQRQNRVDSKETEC
Sequence of Paired box protein Pax-8 (Q06710 whole entry): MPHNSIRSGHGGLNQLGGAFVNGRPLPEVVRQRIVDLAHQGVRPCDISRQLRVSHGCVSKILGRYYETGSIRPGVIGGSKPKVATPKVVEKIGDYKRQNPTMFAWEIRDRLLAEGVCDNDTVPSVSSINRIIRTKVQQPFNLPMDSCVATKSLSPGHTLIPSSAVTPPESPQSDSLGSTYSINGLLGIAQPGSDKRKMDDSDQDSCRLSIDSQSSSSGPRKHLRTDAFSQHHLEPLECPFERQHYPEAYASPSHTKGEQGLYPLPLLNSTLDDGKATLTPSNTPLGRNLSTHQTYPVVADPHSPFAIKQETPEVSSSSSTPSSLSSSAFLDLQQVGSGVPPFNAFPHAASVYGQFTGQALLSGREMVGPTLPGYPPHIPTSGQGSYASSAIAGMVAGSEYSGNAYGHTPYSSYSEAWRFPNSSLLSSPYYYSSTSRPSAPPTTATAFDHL

For `COc1c(O)cc2oc(-c3ccc(O)cc3)cc(=O)c2c1O` [HISPIDULIN], the AC50 [1] was 0.572 µM (active), the IC50 [2] was > 0.834 µM (active) and the IC50 (cells [3]) was > 67.5 µM (inactive).
With `Cc1cc(C(=O)COC(=O)C2=NNC(=O)CC2)c(C)n1CCc1ccccc1` the EC50 [4] was 1.58 µM (active), the EC50 (cells [5]) was > 29.9 µM (inactive) and the IC50 (cells [6]) was > 29.9 µM (inactive). For the same compound, the IC50 [7] was 7.2 µM (active).
In the case of `C=CCC[C@H](Cc1ccc(F)cc1)C(=O)OC[C@@H](Cc1c[nH]c2ccccc12)NC(=O)[C@H](CC=C)CC(=O)N(CCO)Cc1ccccc1`, the IC50 [8] is reported as > 69.5 µM (inactive), the AC50 [9] is reported as 3.42 µM (active) and the IC50 [10] is reported as > 7.72 µM (active). The AC50 [11] was 8.66 µM (active), the AC50 [12] was 30.9 µM (active) and the AC50 [13] was 29 µM (active).
For `C/C(=N\NC(=O)OC(C)(C)C)c1ccc[nH]1`, the EC50 [14] was > 67.6 µM (inactive).
For `COCCNC(=O)/C(C#N)=C/c1cc(C)n(-c2ccc(C)cc2)c1C`, the EC50 [14] was > 67.5 µM (inactive).
With `O=C(NCCc1ccncc1)[C@@H]1N[C@@H]2c3ccc(/C=C/c4ccccc4)c(=O)n3C[C@@H]2[C@H]1CO` the AC50 [15] was 13 µM (active).
In the case of `CC(C)N1C[C@H](C)[C@@H](CN(C)Cc2ccccc2Cl)Oc2c(NC(=O)c3ccncc3)cccc2C1=O`, the IC50 [16] is reported as 0.0201 µM (active).
In the case of `CCOC(=O)c1[nH]c2cc3c(cc2c1NC(=O)CN1CCc2ccccc2C1)OCO3`, the AC50 (Cytochrome P450 2C9) is reported as 7.94 µM (inconclusive), the AC50 (Cytochrome P450 2C19) is reported as 2.24 µM (inconclusive) and the IC50 [17] is reported as 0.485 µM (active).
With `CCc1cc(=O)oc2c(CNCc3c(F)cccc3Cl)c(O)ccc12` the AC50 (HEK293) was 230 µM (active), the AC50 [15] was 8.53 µM (active) and the AC50 [18] was 54.9 µM (active).
For `Cc1ccccc1-c1ccc([C@@H]2[C@@H]3CN(C(=O)Nc4cccc(F)c4)C[C@H]2N3)cc1`, the AC50 [19] was 21.8 µM (active), the AC50 (Paired box protein Pax-8) was 30.7 µM (active) and the AC50 [20] was 22.9 µM (active). For the same compound, the AC50 [21] was 37.4 µM (active).
In the case of `O=C(N[C@@H](Cc1cccnc1)C(=O)N1CCC[C@H]1C(=O)NCCc1ccccc1Cl)c1ccc(Cl)c(Cl)c1`, the EC50 [4] is reported as 2.9 µM (active), the EC50 (cells [5]) is reported as > 29.9 µM (inactive) and the IC50 (cells [6]) is reported as > 29.9 µM (inactive). The IC50 [7] was 2.6 µM (active).
